For data set [1] the following is noted: pH 7; relative to normal hydrogen electrode; cited from earlier work.
Data set [2] in a line: Reaction of iron(III)-polymaltose complex with ascorbic acid in buffered solution, UV-VIS, exclusion of oxygen. The data set is classed as physicochemical. An excerpt: The following measurements were obtained when iron(III)-polymaltose complex with ascorbic acid (ascorbic acid) was investigated at pH 3.0, 5.5 and 8.0:
The buffered solutions (buffers as described above, see Geisser, P., Arneim. -Forsch./Drug Res. 1990, 40 (II), 7, 754-760) were mixed in a molar ratio of Fe(III):ascorbic acid of 1:1, the concentration of Fe(III) and ascorbic acid in the mixture being 5×10^−5 mol/l in each case, and investigated using a conventional UV-VIS spectrophotometer. The operation was carried out with the strict exclusion of oxygen.

Setting [3] is: pH 3.0, reaction time 2 h, Fe(III):ascorbic acid 1:1, 5x10^-5 mol/l.
[4] abbreviates: pH 3.0, reaction time 4 h, Fe(III):ascorbic acid 1:1.
Where [5] appears, read: pH 5.5, reaction time 2 h, Fe(III):ascorbic acid 1:1.
The mark [6] stands for this setting: pH 8.0, reaction time 2 h, Fe(III):ascorbic acid 1:1.
[7] abbreviates: pH 8.0, reaction time 4 h, Fe(III):ascorbic acid 1:1.

Take `O=C1O[C@H]([C@@H](O)CO)C(O)=C1O` [ascorbic acid, reference compound]: the redox potential in data set [1] is −66 mV.
With iron(III)-polymaltose complex, in data set [2] (pH 3, 5.5 and 8, buffered solution, exclusion of oxygen), the “reaction with ascorbic acid to give dehydroascorbic acid” value is “does not react”. The “Formation of Fe2+ ions” value was determined as 2% in data set [2] (setting [3]); 7% in data set [2] (setting [4]); 0% in data set [2] (setting [5]); 5% in data set [2] (setting [6]); 5% in data set [2] (setting [7]). Also, the “Formation of dehydroascorbic acid” value in data set [2] (setting [3]) is reported as 2%; in data set [2] (setting [4]) it was 7%; in data set [2] (setting [5]), 0%; in data set [2] (setting [6]) it was 9%; in data set [2] (setting [7]), 13%. Moreover, the “reaction with ascorbic acid to dehydroascorbic acid and Fe(II)” value in data set [2] (within a period of 4 hours, pH values of from 3 to 8) is on record as “reacts only slowly”. The redox potential in data set [1] is −332 mV.

Values taken from patent US20080269167A1, “Preparation Comprising Iron(III) Complex Compounds And Redox-Active Substance(s)” (VIFOR (INTERNATIONAL) AG, priority 2005, published 2008).
